According to ChEMBL document CHEMBL4665895, “Covalent Bridging of Corilagin Improves Antiferroptosis Activity: Comparison with 1,3,6-Tri-O-galloyl-β-d-glucopyranose” (ACS Med Chem Lett, 2020):
The source made the active and inactive calls. The rule behind the calls is not given here.

What was measured:
[1] = Antioxidant activity in pH 7.4 phosphate buffer assessed as PTIO radical scavenging activity after 1 hr by microplate reader based assay; format: functional
[2] = Metal chelating activity assessed as Fe2+-compound complex formation by measuring red shift by UV-visible spectrophotometry
[3] = Antioxidant activity assessed as ferric ion reducing activity using FeCl3.H2O and TPTZ incubated for 30 mins by FRAP assay; format: functional
[4] = test system: Bone marrow cell; experiment: Anti-ferroptosis activity against erastin-induced ferroptosis in Sprague-Dawley rat bmMSC cells assessed as inhibition of lipid peroxidation at 3 ug/ml preincubated for 12 hrs followed by compound addition and measured after 12 hrs by C11-Bodipy fluorescent dye based microscopic analysis; format: functional; conditions: dose 3.0 µg/ml
[5] = test system: Bone marrow cell; experiment: Anti-ferroptosis activity against erastin-induced ferroptosis in Sprague-Dawley rat bmMSC cells assessed as increase in cell viability at 0.47 to 4.7 uM preincubated for 12 hrs followed by compound addition and measured after 12 hrs by CCK8 assay; format: functional, cell-based; conditions: dose microM 0.47-4.7, time 12.0 hrs
[6] = Antioxidant activity assessed as compound-DPPH adduct formation with covalent bridging by UHPLC-ESI-Q-TOF-MS analysis; format: functional
[7] = Anti-ferroptosis activity against erastin-induced ferroptosis in Spargue-Dawley rat bmMSCs cells assessed as cell viability at 4.7 uM after 1 hr by AnnexinV-FITC/propidium iodide staining based flow cytometry analysis (reference value: 65.9%); format: functional; conditions: Bone marrow cell, read-out: Activity
[8] = Antioxidant activity assessed as DPPH free radical scavenging activity after 5 mins by microplate reader based assay; format: functional
[9] = Anti-ferroptosis activity against erastin-induced ferroptosis in Sprague-Dawley rat bmMSC cells assessed as late cell death at 4.7 uM after 1 hr by AnnexinV-FITC/propidium iodide staining-based flow cytometric analysis (reference value: 19.9%); format: functional, Bone marrow cell
[10] = Potency index, ratio of trolox IC50 to test compound IC50 for antioxidant activity assessed as DPPH radical scavenging activity; format: functional
[11] = Antioxidant activity in pH 4.5 phosphate buffer assessed as PTIO radical scavenging activity after 1 hr by microplate reader based assay; format: functional
[12] = Metal chelating activity assessed as Fe2+-compound complex formation incubated for 5 mins by colorimetry
[13] = Anti-ferroptosis activity against erastin-induced ferroptosis in Sprague-Dawley rat bmMSC cells assessed as early cell death at 4.7 uM after 1 hr by AnnexinV-FITC/propidium iodide staining-based flow cytometric analysis (reference value: 10.4%); format: functional, Bone marrow cell
[14] = Anti-ferroptosis activity against erastin-induced ferroptosis in Sprague-Dawley rat bmMSC cells assessed as cellular death at 4.7 uM after 1 hr by AnnexinV-FITC/propidium iodide staining-based flow cytometric analysis (reference value: 3.73%); format: functional, Bone marrow cell

Row | Structure (SMILES) | IC50 [1] [µM] | inhibition [1] | Activity [2] | IC50 [3] [µM] | inhibition [3] | Activity [4] | Activity [5] | Activity [6] | viability at 4.7 µM [7] [%] | IC50 [8] [µM] | inhibition [8] | Activity [9] [%] | Ratio IC50 [10] | IC50 [11] [µM] | inhibition [11] | IC50 [12] [µM] | inhibition [12] | Activity [13] [%] | Activity [14] [%]
1 | O=C(OC[C@H]1O[C@@H](OC(=O)c2cc(O)c(O)c(O)c2)[C@H](O)[C@@H](OC(=O)c2cc(O)c(O)c(O)c2)[C@@H]1O)c1cc(O)c(O)c(O)c1 | 115 | Dose-dependent effect | Active | 35 | Dose-dependent effect | Active | Active | Active | 78.4 | 1 | Dose-dependent effect | 9 | 6.5 | 290 | Dose-dependent effect | 11 | Dose-dependent effect | 10.3 | 2.2
2 | Cc1c(C)c2c(c(C)c1O)CCC(C)(C(=O)O)O2 (racemic) [TROLOX] | 445 | – | – | 81 | – | – | – | – | – | 7 | – | – | – | 289 | – | – | – | – | –
3 | O=C(O[C@@H]1O[C@@H]2COC(=O)c3cc(O)c(O)c(O)c3-c3c(cc(O)c(O)c3O)C(=O)O[C@H]([C@H]1O)[C@@H]2O)c1cc(O)c(O)c(O)c1 [CORILAGIN] | 94 | Dose-dependent effect | Active | 12 | Dose-dependent effect | Active | Active | Active | 80.2 | 1 | Dose-dependent effect | 7.8 | 8 | 204 | Dose-dependent effect | 7 | Dose-dependent effect | 9.2 | 2.7
4 | O=C([O-])CC(O)(CC(=O)[O-])C(=O)[O-].[Na+].[Na+].[Na+] [SODIUM CITRATE] | – | – | – | – | – | – | – | – | – | – | – | – | – | – | – | 14 | – | – | –
